Source: patent US9040713B2, “Methods of managing blood sugar levels and compositions related thereto” (EMORY UNIVERSITY, priority 2010, dated 2015)

Key:
MET = MET (Homo sapiens, UniProt P08581); experiment: RTK kinase profile screen assay; format: biochemical; settings: 10 μM
FGFR1 = FGFR1 (Homo sapiens, UniProt P11362); experiment: RTK kinase profile screen assay; format: biochemical; settings: 10 μM
ob/ob mice = experiment: Plasma insulin in ob/ob mice; format: in vivo, mouse; settings: single oral doses
Protocol: After a 12 h fasting, ob/ob mice were bled from the tail vein for a baseline (time −60 minutes) measurement. Then animals were orally administered 5 mg/kg compound in 0.5% methylcellulose. One hour after the drug administration, glucose (2 g/kg) was administrated intraperitoneally. Blood glucose levels were measured 0, 30, 60, 90, 120, and 180 min after administration of glucose. The blood was collected in tubes, kept at 4° C. overnight, and plasma was prepared by centrifugation (2,000 g, 20 min). Plasma insulin was measured by enzyme-linked immunosorbent assay with a rat insulin kit (Crystal Chem. Inc., USA). Insulin was quantified using the insulin standard curve.

GST-IRTK = molecular target: T1, GST-IRTK (Homo sapiens, UniProt P06213); experiment: UV-absorption spectra titration; format: binding
T1 construct: GST-tagged IRTK (GST-IRTK, a.a. 1011-1382); purchased Invitrogen
T1 sequence (P06213 1011-1382): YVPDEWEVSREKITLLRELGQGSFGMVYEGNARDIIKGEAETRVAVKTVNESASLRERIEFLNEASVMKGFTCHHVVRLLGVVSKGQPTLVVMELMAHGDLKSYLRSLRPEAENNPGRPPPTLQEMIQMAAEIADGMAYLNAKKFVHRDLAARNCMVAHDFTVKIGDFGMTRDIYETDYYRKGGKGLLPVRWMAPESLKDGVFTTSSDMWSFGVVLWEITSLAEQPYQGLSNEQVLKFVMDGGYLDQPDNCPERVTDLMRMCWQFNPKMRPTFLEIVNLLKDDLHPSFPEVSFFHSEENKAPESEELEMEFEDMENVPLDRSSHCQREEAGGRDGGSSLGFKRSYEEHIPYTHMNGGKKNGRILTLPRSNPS
Protocol: UV-Vis absorption for protein binding was obtained using the Cary 300 UV-Visible spectrophotometer (Varian Inc., Palo Alto, Calif.) equipped with 1.0 cm quartz cells. The spectra were scanned from 200 to 800 nm in Tris buffer (0.01M Tris, 0.05M NaCl, 10 mM MgCl2, pH 7.8). During the spectrophotometric titrations, protein (GST or GST-IRTK) was added to a cell containing a constant amount of compound. The absorbances at 602 nm were recorded (data were read for three times and mean value was obtain by averaging) and the obtained data were processed with KaleidaGraph (Synergy Software). Repeated measurements were done for all the samples and no significant differences were observed (The reproducibility errors is less than 5%). Binding results from the UV titration experiments were fit with a one site interaction model: r=K*Cfree/(1+K*Cfree) Where r represents the moles of bound compound per mole of protein, K is macroscopic binding constants, and Cfree is the free compound concentration in equilibrium with the complex. Insulin Competition Assay
Several small molecules bind to the intracellular kinase domain of IR (IRTK) and provoke its activation. DDN might also interact with the IRTK to activate IR. To test this possibility, an UV-absorption spectra analysis was performed using recombinant IRTK. […]

MET, sequence (P08581 25-1390): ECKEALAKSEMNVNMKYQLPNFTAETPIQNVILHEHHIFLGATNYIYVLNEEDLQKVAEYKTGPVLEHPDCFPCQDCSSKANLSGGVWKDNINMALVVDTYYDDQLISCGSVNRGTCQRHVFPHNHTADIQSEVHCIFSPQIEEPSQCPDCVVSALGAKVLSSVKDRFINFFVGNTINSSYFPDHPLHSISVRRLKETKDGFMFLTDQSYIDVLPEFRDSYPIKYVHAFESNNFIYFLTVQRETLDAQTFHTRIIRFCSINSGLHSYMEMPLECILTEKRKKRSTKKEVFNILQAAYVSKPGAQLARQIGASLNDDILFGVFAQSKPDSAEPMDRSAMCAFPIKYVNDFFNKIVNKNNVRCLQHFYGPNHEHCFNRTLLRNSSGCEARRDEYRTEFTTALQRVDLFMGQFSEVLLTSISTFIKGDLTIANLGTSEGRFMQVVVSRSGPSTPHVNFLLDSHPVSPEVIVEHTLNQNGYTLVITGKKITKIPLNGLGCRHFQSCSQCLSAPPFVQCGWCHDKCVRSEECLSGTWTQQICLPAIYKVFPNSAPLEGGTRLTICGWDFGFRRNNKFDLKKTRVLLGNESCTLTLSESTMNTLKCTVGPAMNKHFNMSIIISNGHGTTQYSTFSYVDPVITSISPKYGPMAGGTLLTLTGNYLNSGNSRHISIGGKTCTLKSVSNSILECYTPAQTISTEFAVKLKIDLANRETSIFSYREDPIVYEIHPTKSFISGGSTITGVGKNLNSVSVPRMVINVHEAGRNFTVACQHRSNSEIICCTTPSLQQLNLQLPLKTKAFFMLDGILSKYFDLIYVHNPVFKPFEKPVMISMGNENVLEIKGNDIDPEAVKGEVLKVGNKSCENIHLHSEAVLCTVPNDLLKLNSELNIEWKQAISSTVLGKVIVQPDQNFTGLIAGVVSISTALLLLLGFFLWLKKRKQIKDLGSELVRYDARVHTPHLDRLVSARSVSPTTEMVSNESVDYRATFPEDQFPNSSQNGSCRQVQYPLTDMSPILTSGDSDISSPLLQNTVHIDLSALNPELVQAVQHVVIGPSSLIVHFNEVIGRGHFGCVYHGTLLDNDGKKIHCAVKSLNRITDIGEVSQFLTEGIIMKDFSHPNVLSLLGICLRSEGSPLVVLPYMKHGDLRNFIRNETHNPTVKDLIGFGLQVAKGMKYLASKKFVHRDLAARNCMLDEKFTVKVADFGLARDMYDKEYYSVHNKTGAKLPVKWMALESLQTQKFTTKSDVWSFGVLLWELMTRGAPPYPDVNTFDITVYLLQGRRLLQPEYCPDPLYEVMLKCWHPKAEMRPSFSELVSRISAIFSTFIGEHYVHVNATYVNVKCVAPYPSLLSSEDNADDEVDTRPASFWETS
FGFR1, sequence (P11362 22-822, species assumed): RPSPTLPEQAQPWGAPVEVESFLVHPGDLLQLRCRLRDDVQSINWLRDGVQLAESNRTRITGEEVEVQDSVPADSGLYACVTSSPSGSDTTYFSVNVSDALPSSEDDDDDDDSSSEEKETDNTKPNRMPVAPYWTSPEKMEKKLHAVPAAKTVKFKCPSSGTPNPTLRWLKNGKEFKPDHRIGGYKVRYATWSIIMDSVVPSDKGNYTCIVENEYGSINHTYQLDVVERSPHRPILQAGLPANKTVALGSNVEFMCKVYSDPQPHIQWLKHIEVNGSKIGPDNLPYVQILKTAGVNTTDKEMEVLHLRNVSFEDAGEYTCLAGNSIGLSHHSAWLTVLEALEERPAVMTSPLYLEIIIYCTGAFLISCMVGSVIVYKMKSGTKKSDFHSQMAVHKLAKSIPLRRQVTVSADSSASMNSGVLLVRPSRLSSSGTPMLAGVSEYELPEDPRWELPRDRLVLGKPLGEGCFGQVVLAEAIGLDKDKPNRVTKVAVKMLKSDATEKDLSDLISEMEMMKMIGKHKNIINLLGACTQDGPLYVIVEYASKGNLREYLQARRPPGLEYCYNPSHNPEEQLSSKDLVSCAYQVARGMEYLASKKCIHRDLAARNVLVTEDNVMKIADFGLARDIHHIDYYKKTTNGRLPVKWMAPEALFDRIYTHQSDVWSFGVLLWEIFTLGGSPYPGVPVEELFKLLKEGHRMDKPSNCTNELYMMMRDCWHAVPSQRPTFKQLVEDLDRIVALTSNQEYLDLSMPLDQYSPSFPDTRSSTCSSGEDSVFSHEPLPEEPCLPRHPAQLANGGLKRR

SMILES	inhibition of MET (MET)	inhibition of FGFR1 (FGFR1)	plasma insulin levels (ob/ob mice)	Kd (GST-IRTK; UV titration, absorbance at 602 nm, read-out: binding constant Kd) [µM]	peak absorption at 560 and 602 nm in presence of GST-IRTK (GST-IRTK; spectra 200 to 800 nm)
O=C1c2ccccc2C(=O)C2SC(Nc3ccc(Cl)cc3)=NC12 (centres unmarked) [4524-E7, 2-((4-chlorophenyl)amino)naphtho[2,3-d]thiazole-4,9(3aH,9aH)-dione]	slightly inhibited	slightly inhibited	–	–	–
CC(=O)Oc1ccc(OC(C)=O)c2c1C(=O)C(Cl)=C(Cl)C2=O [DDN, 5,8-diacetyloxy-2,3-dichloro-1,4-naphthoquinone]	–	–	no significant effect on plasma insulin levels	~3.27	enhanced the peak absorption at 560 and 602 nm
